In ChEMBL document CHEMBL4396902, “Development of a Platform To Enable Efficient Permeability Evaluation of Novel Organo-Peptide Macrocycles” (ACS Med Chem Lett, 2019):

Assay: Apparent permeability in dog MDCK2 cells incubated for 3 hrs
Format: ADME, cell-based, Canis lupus familiaris
Conditions: mdck-ii

Row | SMILES | Papp
1 | CC[C@H](C)[C@@H]1NC(=O)CNc2ccccc2CCNC(=O)[C@@H]2CCCN2C(=O)[C@@H](Cc2ccccc2)NC(=O)[C@@H](CC(C)C)NC1=O | 145 nm/s
2 | CC[C@H](C)[C@@H]1NC(=O)CNc2cccc(c2)CCNC(=O)[C@@H]2CCCN2C(=O)[C@@H](Cc2ccccc2)NC(=O)[C@@H](CC(C)C)NC1=O | 76 nm/s
3 | CC[C@H](C)[C@@H]1NC(=O)CNc2ccccc2CCNC(=O)[C@@H]2CCCN2C(=O)[C@H](Cc2ccc(F)cc2)NC(=O)[C@@H](CC(C)C)NC1=O | 129 nm/s
4 | CC[C@H](C)[C@@H]1NC(=O)CNc2cccc(c2)CNC(=O)[C@@H]2CCCN2C(=O)[C@H](Cc2ccc(F)cc2)NC(=O)[C@H](CC2CCCCC2)NC1=O | 39 nm/s
5 | CC[C@H](C)[C@@H]1NC(=O)CCCNc2cccc(c2)CNC(=O)[C@@H]2CCCN2C(=O)[C@H](Cc2ccc(F)cc2)NC(=O)[C@H](CC2CCCCC2)NC1=O | 29 nm/s
6 | CC(C)C[C@H]1NC(=O)[C@@H](C(C)C)NC(=O)CNc2ccccc2CCNC(=O)[C@@H]2CCCN2C(=O)[C@H](Cc2ccc(F)cc2)NC1=O | 55 nm/s
7 | CC[C@H](C)[C@@H]1NC(=O)CNc2cccc(c2)CCNC(=O)[C@@H]2CCCN2C(=O)[C@H](Cc2ccc(F)cc2)NC(=O)[C@@H](CC(C)C)NC1=O | 57 nm/s
8 | CC(C)C[C@H]1NC(=O)[C@@H](C(C)C)NC(=O)CNc2cccc(c2)CCNC(=O)[C@@H]2CCCN2C(=O)[C@H](Cc2ccc(F)cc2)NC1=O | 40 nm/s
